In patent US20250092437A1, “DISEASE DETECTION WITH COMBINATORIAL BIOMARKERS” (priority 2021, published 2025):
Primed or numbered codes have the meaning given here. Ends that are not written are not given here. PEG2′ = not defined here

Key:
[1] = system: proteolytic cleavage of Probe #102 (cathepsin L, CTSL); experiment: protease inhibitor profiling of Probe #102 cleavage in NASH and healthy plasma; assay type: biochemical, mice; conditions: for effect on Probe #102 signal: NASH and healthy plasma
Description: For this experiment, all plasma samples were prepared individually and diluted 1/10e in PBS with inhibitor added directly to the samples. Inhibitor was prepared at 15× concentration to final. Substrates were diluted in DI water at 18 uM, such that the final concentration on the plate would be 6 uM. All samples were prepared such that their last dilution on the plate would not affect the desired final concentration. 10 ul of each individual sample was pipetted into their corresponding wells, and the plate was then spun down in the centrifuge at 1500 RPM for 30 seconds to coat the bottom of each well with the sample. 5 ul of the 18 uM substrate solution was pipetted into each well being used on a 384 well plate, and then the plate was spun down in the centrifuge at 1500 rpm for 30 seconds. The plate was placed immediately in the plate reader at 37° C. for a 30-minute-long fluorescence kinetic read at 485/535 extended gain.
To assess the proteolytic cleavage pattern of Probe #102, samples were tested using a pool of broad inhibitors for serine, cysteine, threonine, MMP and aspartic protease family members (broad inhibitor) to assess general protease activity, AEBSF for serine proteases, E64 for cysteine proteases, CTSi for broad cathepsin inhibition of cathepsins L, S, K and B, or specific inhibitors for cathepsin K (L00625), for cathepsin L (SID) or cathepsin B (CA074).

[2] = system: carboxylesterase 1, phospholipase A2 and lipoprotein lipase; experiment: spiked recombinant enzymes in human plasma with resorufin oleate as substrate; assay type: biochemical
caspase activity = experiment: ex vivo probe cleavage in plasma of Jo2 fulminant hepatitis mice; assay type: biochemical; conditions: mouse plasma 3 hours after Jo2 injection
Description: Fulminant hepatitis is induced after injection intraperitoneal of monoclonal antibody anti-CD95 (Jo2, BD biosciences, 4 ug/animal), and mouse plasma samples were collected 3 hours after Jo2 injection.

[3] = system: host response and SARS-COV2 proteases; experiment: probe cleavage in K2 EDTA and Lithium Heparin plasma, COVID vs healthy; assay type: biochemical
[4] = system: cathepsin and/or MMP protease activities; experiment: probe cleavage in plasma of healthy, NASH regression and NASH progression mice; assay type: biochemical; conditions: K2 EDTA plasma at 20 weeks
Description: Plasma samples were collected from all animals at 20 weeks.
The probes showing the most differentiation in NASH were linked to cathepsin and/or MMP protease activities.

NASH-related proteases = experiment: ex vivo fluorescent probe cleavage (RFU/min) in K2 EDTA plasma, NASH (CDAHFD) vs healthy (CD) mice; assay type: biochemical; conditions: n=10 samples and pooled plasma
Description: All animals were used in accordance with animal care guidelines. Plasma was obtained from these blood samples by centrifugation at 3,500 RPM for 20 min at 4° C. The plasma was stored at −80° C. until it was needed for experimental purposes.
Samples were mixed with protease substrates and quenchers/reporters in 96-well plates. The 96-well plates were read on a Biotech Synergy H1, using 465,535 excitation/emission settings.
Probes measuring cathepsin activity were 3-fold higher in protease cleavage kinetics in mice with NASH compared to healthy mice.
A single plasma sample was contacted with the probes for each predetermined protease to provide a multiplex assessment of protease activity in the sample.

Granzyme B = experiment: probe cleavage in COVID positive and COVID negative swab samples; assay type: biochemical
[5] = K2 EDTA and Lithium Heparin plasma sets

NCCc1ccc(S(=O)(=O)F)cc1 [AEBSF]
decrease of NASH signal ([1]; Probe #102, NASH plasma): 65%
decrease of healthy signal ([1]; Probe #102, healthy plasma): 60%

CCCNC(=O)[C@H]1O[C@@H]1C(=O)N[C@H](C(=O)N1CCC[C@H]1C(=O)O)[C@@H](C)CC [CA074]
effect on Probe #102 signal [1]: did not significantly decrease signal

CC(C)C[C@H](NC(=O)[C@H]1O[C@@H]1C(=O)O)C(=O)NCCCCN=C(N)N [Probe E64, E64]
effect on Probe #102 signal [1]: decreased NASH signal significantly

CN1CCN(c2nc(-c3ccc(C(=O)NC4(C(=O)NCC#N)CCCCC4)cc3)cs2)CC1 [Probe L006235]
effect on Probe #102 signal [1]: did not significantly decrease signal

CCCC(=O)O [butyrate]
suitability as substrate for enzyme detection [2]: promising for detection of broad range of enzymes

Probe #8: Caspase centric probe (VDVAD; not fully specified; 5-FAM, CPQ2 quencher, PEG2, D-Lys-D-Lys-GC)
contrast between healthy and Jo2 samples (caspase activity): contrast that is specific and sensitive to the Jo2 model

Probe #18: a Neutrophil elastase substrate (GAAPVGK; also: 5-FAM, CPQ2 quencher, PEG2-kk-GC, places not given here)
differential cleavage between COVID and healthy samples [3, 5]: demonstrated contrast in both sets

Probe #84: a Furin substrate (GRVKRGLAGK; also: 5-FAM, CPQ2 quencher, PEG2-kk-GC, places not given here)
differential cleavage between COVID and healthy samples [3, 5]: demonstrated contrast in both sets

Probe #96: probe differentiating healthy, regression and NASH plasma samples ({FAM}-GRPLALWESQG-{K(CPQ2)-PEG2′-dK-Gly-Cys}; not fully specified; printed as (FAM)-GRPLALWESQG-K(CPQ2)-PEG2-k-GC)
differentiation among healthy, regression and NASH plasma samples [4]: can differentiate

Probe #102: a CTSL sensing probe; fluorescent reporter and quencher peptide probe (GKPILFFRLKG; also: FAM (position not given here), K(CPQ2) quencher (position not given here), PEG2-kk-GC (attachment not given here))
what the measured rate of fluorescence increase is ascribed to (NASH-related proteases): can be ascribed to protease activity and to NASH disease
protease whose activity the probe responds to ([1]; inhibitor experiments FIG. 30D-F): specifically responds to the activity of cathepsin L (CTSL)
differentiation among healthy, regression and NASH plasma samples [4]: can differentiate

Probe #409: the SARS CoV2 coronavirus substrate (SARS-COV2 3C protease) (GTSAVLQSGFRKGK; also: 5-FAM, CPQ2 quencher, PEG2-kk-GC, places not given here)
differential cleavage between COVID and healthy samples ([3]; K2 EDTA samples): modest contrast

Probe #428: probe differentiating healthy, regression and NASH plasma samples ({FAM}-GDRRKKLTQG-{K(CPQ2)-PEG2′-dK-dK-Gly-Cys}; not fully specified; printed as (FAM)-GDRRKKLTQG-K(CPQ2)-(PEG2)-DLys-DLys-GC)
differentiation among healthy, regression and NASH plasma samples [4]: can differentiate

Probe #462: a MMP8 substrate (GKKAKRNALG; also: FAM (position not given here), K(CPQ2) (position not given here), PEG2, D-Lys-D-Lys-GC (attachment not given here))
differential cleavage between COVID and healthy samples [3, 5]: demonstrated contrast in both sets

Probe #492: probe whose fluorescence increase is ascribed to protease activity and NASH disease in mice plasma ({FAM}-GQRANSIRVTWG-{K(CPQ2)-PEG2′-dK-dK-Gly-Cys}; not fully specified; printed as (FAM)-GQRANSIRVTWG-K(CPQ2)-(PEG2)-DLys-DLys-GC)
what the measured rate of fluorescence increase is ascribed to (NASH-related proteases): can be ascribed to protease activity and to NASH disease
differentiation among healthy, regression and NASH plasma samples [4]: can differentiate

Probe #520: probe differentiating healthy, regression and NASH plasma samples (GKPISLISSG; not fully specified; 5FAM, K(CPQ2), PEG2-GC)
differentiation among healthy, regression and NASH plasma samples [4]: can differentiate

Probe #647: Caspase centric probe; signal measures the activity of protease Granzyme B (GAIEPDSGG; also: 5FAM (position not given here), Lys(CPQ2) (position not given here), PEG2, D-Lys-D-Lys, GC-NH2 (attachment not given here))
differentiation among healthy, regression and NASH plasma samples [4]: can differentiate
contrast between healthy and Jo2 samples (caspase activity): contrast that is specific and sensitive to the Jo2 model
number of active samples, COVID+ (Granzyme B; adjusted RFU across timepoints, COVID+): 7 samples
number of active samples, COVID- (Granzyme B; adjusted RFU across timepoints, COVID-): 1 samples
protease whose activity the probe signal measures (Granzyme B; inhibition experiments, healthy vs COVID samples): measures the activity of protease Granzyme B
differentiation between COVID+ and COVID- samples (Granzyme B; swab samples in saline): key differentiator

Resorufin oleate
suitability as substrate for enzyme detection [2]: promising for detection of broad range of enzymes
